# Test results: US9034906B2, “EP4 agonist” (Asahi Glass Company, Limited, priority 2008, dated 2015)
# What was measured:
# [1] = target: T1, human EP1 (Homo sapiens, UniProt P34995); assay: Receptor affinity, tritium-labeled PGE2 binding to membranes of transfected COS-7 cells; settings: COS-7 cell membranes
# T1 construct: expressed in transfected cells; host or cells: COS-7 (membranes)
# T1 sequence (P34995 1-402): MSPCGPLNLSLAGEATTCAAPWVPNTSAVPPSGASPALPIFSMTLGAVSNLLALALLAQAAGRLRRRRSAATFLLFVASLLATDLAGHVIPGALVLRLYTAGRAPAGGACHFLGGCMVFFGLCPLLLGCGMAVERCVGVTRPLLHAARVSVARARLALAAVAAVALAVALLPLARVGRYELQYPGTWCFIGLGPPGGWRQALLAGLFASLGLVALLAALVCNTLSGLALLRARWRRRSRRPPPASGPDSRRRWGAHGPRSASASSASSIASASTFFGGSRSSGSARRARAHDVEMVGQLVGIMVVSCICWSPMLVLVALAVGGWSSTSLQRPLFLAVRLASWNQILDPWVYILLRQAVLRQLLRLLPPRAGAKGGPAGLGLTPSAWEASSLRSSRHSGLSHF
# Description: PG receptor affinity of compound F and compound J of the present invention was evaluated. Compound F used was one synthesized in Example 9, and compound J was prepared by separating and purifying the compound synthesized in Example 14 with a column (the same preparations were used in the following Examples). COS-7 cells were transfected with the genes of mouse EP4, human EP1-4 or human IP to overexpress the receptor and then the cell membranes were collected. As a labeled ligand, tritium-labeled PGE2 was used for EPs; tritium-labeled iloprost, for IP. The dissociation constant Kd value was obtained and inhibition constant Ki value of each test compound was determined in a conventional method. As a reference control, PGE2 was used for EPs; beraprost sodium (BPS), for IP.
# [2] = test system: IL-2; assay: Suppression of IL-2 production by anti-CD3/anti-CD28 stimulated CD4 positive T cells; format: cell-based; settings: human CD4 positive T cells, anti-CD3 and anti-CD28 antibody, 24 hr, ELISA; geometric mean of three volunteers
# Description: Using human peripheral blood, an anti-inflammatory effect of compounds F and J in vitro was studied. Blood was collected from 3 healthy volunteers, and CD4 positive T cells were prepared. Anti-CD3 antibody and anti-CD28 antibody were added, and 24 hr later the amounts of IL-2 and TNFα released in the medium were measured by ELISA. […] The amount of IP-10 released into the medium for 48 hr was measured with ELISA. In both cases, the test compound was added 30 min before stimulation.
# Each value is a geometric mean of three volunteers.
structure (smiles),measurement,setting,value
CCCCC[C@H](O)/C=C/[C@H]1[C@H](O)CC(=O)[C@@H]1C/C=C\CCCC(=O)O [PGE2],Ki,[1],2.9 nM
same,IC50,[2],0.062 nM
